US9943076B2, “Boron added cell cryopreservation medium” (YEDITEPE ÜNIVERSITESI, priority 2013, dated 2018)

Columns and labels:
[1] = system: human tooth germ stem cells; conditions: 20 μg/ml NaB + 5% Me2SO, thawed after long term freezing
[2] = system: human tooth germ stem cells; conditions: FIG. 2
Experimental: During the freezing process, different from the standard protocol, 20 μg/ml NaB was added to the cell cryopreservation medium. The control group was incubated by a standard cryopreservation medium. During freezing of the cells, different amounts of Me2SO (10%, 7%, 5% and 3% Me2SO) were added to the medium which contained 20% FBS (Fetal Bovine Serum) and 1% PSA (penicillin streptomycin amphotericin) in addition to 20 μg/ml NaB. Except for the group which was frozen for an extended period (6 months), the other cells were subjected to 4 repeating freeze-thaw processes. During each freezing process, one million cells were placed into one freezing tube and were frozen to −80° C. by using a freezing tank. The freezing tubes were transferred to −196° C. liquid nitrogen vapor one day later. After each freezing process, the cells were rapidly molten in a 37° C. water bath and viability analyses were performed with trypan blue.

[3] = system: human tooth germ stem cells
Experimental: The intermediate concentrations to be applied on the cells were prepared in the cell culture medium and were applied on the human tooth germ stem cells.

## sodium pentaborate pentahydrate [NaB]
[1]
  differentiation of the cells into chondrogenic lineage: increase
  differentiation of the cells into odontogenic lineage: increase
  stem cell differentiation into adipose tissue: slight decrease
[1]; FIG. 3-4
  differentiation potentials of the cells (staining and immunocytochemistry analyses): no significant change
[2]; 20 μg/ml NaB in the presence of 5% Me2SO, repeatedly frozen cells and cells stored long term (6 months)
  toxic effect in cell viability analysis of frozen cells: decreased toxic effect
[2]; 20 μg/ml NaB, 5% Me2SO in cryopreservation medium
  cell viability over repeated freeze-thaw processes: started to increase during and after the second freeze-thaw process
[3]
  concentration at which toxic effect was observed: ≥ 200 µg/mL
